Experimental data: patent publication US9783532B2, “Molecules having certain pesticidal utilities, and intermediates, compositions, and processes related thereto” (Dow AgroSciences LLC, priority 2013, dated 2017)

Key:
Format in all cases: in vivo
[1] = system: Beet Armyworm (Spodoptera exigua) ("BAW"); experiment: Bioassay on beet armyworm (BAW), 128-well diet tray assay; conditions: for pest or weed control at 50 µg/cm2: Table ABC (FB), activity rating class, read-out: BAW (Biological Results, Insect species); for mortality at 50 µg/cm2: 168 h, 50 μg/cm^2 on artificial diet, second instar BAW larvae, 25° C., five to seven days, average of eight wells, read-out: BAW % Control (or Mortality) rating
In short: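 Percent mortality, averaged across eight wells, was read after five to seven days at 25° C. under 14:10 light-dark. Each well held one to five second-instar larvae on artificial diet that had been treated with 50 μg/cm^2 compound in 90:10 acetone-water and dried.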

[2] = system: Cabbage Looper (Trichoplusia ni) ("CL"); experiment: Bioassay on cabbage looper (CL), 128-well diet tray assay; conditions: for pest or weed control at 50 µg/cm2: Table ABC (FB), activity rating class, read-out: CL (Biological Results, Insect species); for mortality at 50 µg/cm2: 168 h, 50 μg/cm^2 on artificial diet, second instar CL larvae, 25° C., five to seven days, average of eight wells, read-out: CL % Control (or Mortality) rating
In short: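 Percent mortality, averaged across eight replicate wells, was read after five to seven days at 25 °C under a 14:10 photoperiod. Each well held one to five second-instar T. ni on diet carrying a dried 50 μg/cm^2 dose applied in acetone-water 90:10.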

[3] = system: Yellow Fever Mosquito "YFM" (Aedes aegypti); conditions: for YFM (Biological Results, Insect species): Table ABC (FB), activity rating class; for YFM % Control (or Mortality) rating: about 1 day-old larvae, 96-well plate, room temperature, 3 days
Method: Certain molecules disclosed in this document were tested against YFM using procedures described in the following paragraph. In the reporting of the results, the “YFM Rating Table” was used (See Table Section).
Master plates containing 400 μg of a molecule dissolved in 100 μL of dimethyl sulfoxide (DMSO) (equivalent to a 4000 ppm solution) are used. A master plate of assembled molecules contains 15 μL per well. To this plate, 135 μL of a 90:10 wateracetone mixture is added to each well. A robot (Biomek® NXP Laboratory Automation Workstation) is programmed to dispense 15 μL aspirations from the master plate into an empty 96-well shallow plate (“daughter” plate). There are 6 reps (“daughter” plates) created per master. The created daughter plates are then immediately infested with YFM larvae.
The day before plates are to be treated, mosquito eggs are placed in Millipore water containing liver powder to begin hatching (4 g. into 400 mL). After the daughter plates are created using the robot, they are infested with 220 μL of the liver powder/larval mosquito mixture (about 1 day-old larvae). After plates are infested with mosquito larvae, a non-evaporative lid is used to cover the plate to reduce drying. Plates are held at room temperature for 3 days prior to grading. After 3 days, each well is observed and scored based on mortality.

| SMILES | pest or weed control at 50 µg/cm2 [1] [%] | pest or weed control at 50 µg/cm2 [2] [%] | YFM (Biological Results, Insect species) [3] | mortality at 50 µg/cm2 [1] [%] | mortality at 50 µg/cm2 [2] [%] | YFM % Control (or Mortality) rating [3] |
| --- | --- | --- | --- | --- | --- | --- |
| Cc1ccc(N2/C(=N/C(=O)NCCc3ccc(-c4ncn(-c5ccc(OC(F)(F)F)cc5)n4)cc3)SCC2C)c(C(C)C)c1 (stereo not drawn) [FB60, (Z)-1-(3-(2-isopropyl-4-methylphenyl)-4-methylthiazolidin-2-ylidene)-3-(4-(1-(4-(trifluoromethoxy)phenyl)-1H-1,2,4-triazol-3-yl)phenethyl)urea] | 50 to 100 | 50 to 100 | A (80-100) |  |  |  |
| C=CCN(CCc1ccc(-c2ncn(-c3ccc(OC(F)(F)F)cc3)n2)cc1)C(=O)/N=C1\SCC(=O)N1c1cc(C)ccc1C(C)C [FB61] | 50 to 100 | 50 to 100 | A (80-100) |  |  |  |
| Cc1ccc(C(C)C)c(N2C(=O)CS/C2=N\C(=O)N(CCc2ccc(-c3ncn(-c4ccc(OC(F)(F)F)cc4)n3)cc2)CC2CC2)c1 [FB62, (Z)-1-(cyclopropylmethyl)-3-(3-(2-isopropyl-5-methylphenyl)-4-oxothiazolidin-2-ylidene)-1-(4-(1-(4-(trifluoromethoxy)phenyl)-1H-1,2,4-triazol-3-yl)phenethyl)urea] | 50 to 100 | 50 to 100 | A (80-100) |  |  |  |
| Cc1ccc(C(C)C)c(N2C(=O)CS/C2=N\C(=O)NC2(Cc3ccc(-c4ncn(-c5ccc(OC(F)(F)F)cc5)n4)cc3)CC2)c1 [FB63, (Z)-1-(3-(2-isopropyl-5-methylphenyl)-4-oxothiazolidin-2-ylidene)-3-(1-(4-(1-(4-(trifluoromethoxy)phenyl)-1H-1,2,4-triazol-3-yl)benzyl)cyclopropyl)urea] | 50 to 100 | 50 to 100 | A (80-100) |  |  |  |
| CS/C(=N\C(=O)NCCc1ccc(-c2ncn(-c3ccc(OC(F)(F)F)cc3)n2)cc1)Nc1cc(C)ccc1C(C)C [FB65, (Z)-methyl N-(2-isopropyl-5-methylphenyl)-N′-((4-(1-(4-(trifluoromethoxy)phenyl)-1H-1,2,4-triazol-3-yl)phenethyl)carbamoyl)carbamimidothioate] | 50 to 100 | 50 to 100 | A (80-100) |  |  |  |
| Cc1ccc(C(C)C)c(N2/C(=N/C(=O)NCCc3ccc(-c4ncn(-c5ccc(OC(F)(F)F)cc5)n4)cc3)SCC2(C)O)c1 (stereo not drawn) [FB67, (Z)-1-(4-hydroxy-3-(2-isopropyl-5-methylphenyl)-4-methylthiazolidin-2-ylidene)-3-(4-(1-(4-(trifluoromethoxy)phenyl)-1H-1,2,4-triazol-3-yl)phenethyl)urea] | 50 to 100 | 50 to 100 | A (80-100) |  |  |  |
| Cc1ccc(C(C)C)c(N2C(=O)CS/C2=N\C(=O)NCC(Br)c2ccc(-c3ncn(-c4ccc(OC(F)(F)F)cc4)n3)cc2)c1 (stereo not drawn) [FB71, (Z)-1-(2-bromo-2-(4-(1-(4-(trifluoromethoxy)phenyl)-1H-1,2,4-triazol-3-yl)phenyl)ethyl)-3-(3-(2-isopropyl-5-methylphenyl)-4-oxothiazolidin-2-ylidene)urea] | 50 to 100 | 50 to 100 | A (80-100) |  |  |  |
| Cc1ccc(N2C(=O)CS/C2=N\C(=O)NCCc2ccc(-c3ncn(-c4ccc(OC(F)(F)F)cc4)n3)cc2)c(C(C)C)c1 [P26, (Z)-1-(3-(2-isopropyl-4-methylphenyl)-4-oxothiazolidin-2-ylidene)-3-(4-(1-(4-(trifluoromethoxy)phenyl)-1H-1,2,4-triazol-3-yl)phenethyl)urea] |  |  |  | 50 to 100 | 50 to 100 | A (80-100) |
| Cc1cccc(N2C(=O)CS/C2=N\C(=O)NCCc2ccc(-c3ncn(-c4ccc(OC(F)(F)F)cc4)n3)cc2)c1C(C)C [P27, (Z)-1-(3-(2-isopropyl-3-methylphenyl)-4-oxothiazolidin-2-ylidene)-3-(4-(1-(4-(trifluoromethoxy)phenyl)-1H-1,2,4-triazol-3-yl)phenethyl)urea] |  |  |  | 50 to 100 | 50 to 100 | A (80-100) |
| CCCc1ccc(C)cc1N1C(=O)CS/C1=N\C(=O)NCCc1ccc(-c2ncn(-c3ccc(OC(F)(F)F)cc3)n2)cc1 [P29, (Z)-1-(3-(5-methyl-2-propylphenyl)-4-oxothiazolidin-2-ylidene)-3-(4-(1-(4-(trifluoromethoxy)phenyl)-1H-1,2,4-triazol-3-yl)phenethyl)urea] |  |  |  | 50 to 100 | 50 to 100 | A (80-100) |
| CC(C)(C)c1ccccc1N1C(=O)CS/C1=N\C(=O)NCCc1ccc(-c2ncn(-c3ccc(OC(F)(F)F)cc3)n2)cc1 [P30, (Z)-1-(3-(2-(tert-butyl)phenyl)-4-oxothiazolidin-2-ylidene)-3-(4-(1-(4-(trifluoromethoxy)phenyl)-1H-1,2,4-triazol-3-yl)phenethyl)urea] |  |  |  | 50 to 100 | 50 to 100 | A (80-100) |
| CCc1cc(C)ccc1N1C(=O)CS/C1=N\C(=O)NCCc1ccc(-c2ncn(-c3ccc(OC(F)(F)F)cc3)n2)cc1 [P31, (Z)-1-(3-(2-ethyl-4-methylphenyl)-4-oxothiazolidin-2-ylidene)-3-(4-(1-(4-(trifluoromethoxy)phenyl)-1H-1,2,4-triazol-3-yl)phenethyl)urea] |  |  |  | 50 to 100 | 50 to 100 | A (80-100) |
| CC(Cc1ccc(-c2ncn(-c3ccc(OC(F)(F)F)cc3)n2)cc1)NC(=O)/N=C1\SCC(=O)N1c1ccc(F)cc1C(C)C (stereo not drawn) [P33, (Z)-1-(3-(4-fluoro-2-isopropylphenyl)-4-oxothiazolidin-2-ylidene)-3-(1-(4-(1-(4-(trifluoromethoxy)phenyl)-1H-1,2,4-triazol-3-yl)phenyl)propan-2-yl)urea] |  |  |  | 50 to 100 | 50 to 100 | A (80-100) |
| CCc1cccc(C)c1N1C(=O)CS/C1=N\C(=O)NC(C)Cc1ccc(-c2ncn(-c3ccc(OC(F)(F)F)cc3)n2)cc1 (stereo not drawn) [P42, (Z)-1-(3-(2-ethyl-1-methylphenyl)-4-oxothiazolidin-2-ylidene)-3-(1-(4-(1-(4-(trifluoromethoxy)phenyl)-1H-1,2,4-triazol-3-yl)phenyl)propan-2-yl)urea] |  |  |  | 50 to 100 | 50 to 100 | A (80-100) |
| COc1ccc(N2C(=O)CS/C2=N\C(=O)NC(C)Cc2ccc(-c3ncn(-c4ccc(OC(F)(F)F)cc4)n3)cc2)c(C)c1 (stereo not drawn) [P45, (Z)-1-(3-(4-methoxy-2-methylphenyl)-4-oxothiazolidin-2-ylidene)-3-(1-(4-(1-(4-(trifluoromethoxy)phenyl)-1H-1,2,4-triazol-3-yl)phenyl)propan-2-yl)urea] |  |  |  | 50 to 100 | 50 to 100 | A (80-100) |
| COc1cc(C)c(N2C(=O)CS/C2=N\C(=O)NCCc2ccc(-c3ncn(-c4ccc(OC(F)(F)F)cc4)n3)cc2)c(C)c1 [P47, (Z)-1-(3-(4-methoxy-2,6-dimethylphenyl)-4-oxothiazolidin-2-ylidene)-3-(4-(1-(4-(trifluoromethoxy)phenyl)-1H-1,2,4-triazol-3-yl)phenethyl)urea] |  |  |  | 50 to 100 | 50 to 100 | A (80-100) |
| CCc1ccc(C)cc1N1C(=O)CS/C1=N\C(=O)NCCc1ccc(-c2ncn(-c3ccc(OC(F)(F)F)cc3)n2)cc1 [P49, (Z)-1-(3-(2-ethyl-5-methylphenyl)-4-oxothiazolidin-2-ylidene)-3-(4-(1-(4-(trifluoromethoxy)phenyl)-1H-1,2,4-triazol-3-yl)phenethyl)urea] |  |  |  | 50 to 100 | 50 to 100 | A (80-100) |
| CCc1cccc(C)c1N1C(=O)CS/C1=N\C(=O)NCCc1ccc(-c2ncn(-c3ccc(OC(F)(F)F)cc3)n2)cc1 [P50] |  |  |  | 50 to 100 | 50 to 100 | A (80-100) |
| COc1ccc(C(C)C)c(N2C(=O)CS/C2=N\C(=O)NCCc2ccc(-c3ncn(-c4ccc(C(F)(F)F)cc4)n3)cc2)c1 [P53, (Z)-1-(3-(2-isopropyl-5-methoxyphenyl)-4-oxothiazolidin-2-ylidene)-3-(4-(4-(1-(4-trifluoromethyl)phenyl)-1H-1,2,4-triazol-3-yl)phenethyl)urea] |  |  |  | 50 to 100 | 50 to 100 | A (80-100) |
